The source of these data is patent publication US11708330B2, “Compounds, compositions, methods for treating diseases, and methods for preparing compounds” (UNIVERSITY OF LOUISVILLE RESEARCH FOUNDATION, INC., priority 2017, dated 2023).

For one experiment, the system named is human cancer cell lines. Nature of the experiment: Cell proliferation, viable cell counts by Trypan blue exclusion. In kind it is cell-based. Particulars: increasing concentrations; cell counts relative to DMSO, representative counts at 48 hours (FIG. 2); compared with SMPN. The protocol:
The effect of increasing concentrations of Formula (I) on the proliferation of human cancer cells was examined in vitro. […] Data in FIG. 2 are shown as the decrease in cell counts relative to the DMSO (vehicle) control.
Method: Cells were plated in 24 well plates and exposed to increasing concentrations of Formula (I). DMSO was used as a vehicle. After 24, 48 and 72 hours of exposure, cells were detached, and viable cells were counted by Trypan blue exclusion (representative counts at 48 hours shown).

Experiment [1] deals with cancer cells. The experiment in a line: Anchorage independent growth as colonies in soft agar. In kind it is cell-based. Particulars: increasing concentrations; compared with DMSO (FIG. 6). The protocol: We examined the ability of Formula (I) to inhibit the anchorage independent growth of cancer cells in vitro as colonies in soft agar. […] Representative images are shown in FIG. 6A, and colonies formed were enumerated. The number of colonies formed in the presence of Formula (I) was compared with those formed in the presence of the vehicle, DMSO (FIG. 6B).
Cancer cells were plated in soft agar and the effects of increasing concentrations of Formula (I) on anchorage independent growth was examined Briefly, a feeder layer of 0.6% agarose (Agar Noble, Becton Dickinson) in RPMI with 10% fetal bovine serum was plated in 6 cm plates containing vehicle (DMSO) or increasing concentrations of Formula (I). 1×10^4 cells were re-suspended in 0.3% agarose in RPMI/10% serum containing DMSO or increasing concentrations of Formula (I) and plated on top of the feeder layer. Cells were allowed to grow at 37° C. in 5% CO2 and agarose-containing media with DMSO+/−Formula (I) was replenished every 5 days until colonies became visible. Colonies were stained with MTT [3-(4,5-dimethylthiazol-2-yl)-2,5-diphenyl tetrazolium bromide] and counted in four random 1 cm^2 areas per plate under 40× magnification and enumerated.

Experiment [2] deals with cancer cells. Nature of the experiment: Glycolysis in cells, 3H2O production from 5-[3H]glucose. In kind it is cell-based. As to conditions: two independently run experiments (FIG. 4A, 4B). The source says: The effect of Formula (I) on the glycolytic pathway was examined to determine the ability of this inhibitor to decrease glycolysis secondary to its effect on PFKFB4-driven F26BP production. PFKFB4 produces F26BP which activates a rate-limiting enzyme of the glycolytic pathway, […] (PFK-1). […] Data in FIG. 4A and FIG. 4B are shown as the production of ^3H2O by Formula (I) relative to DMSO and normalized to protein concentration.
Method: To examine glycolysis, cells growing in 6-well plates were incubated in 500 μl of complete medium containing 1 μCi of […] per well for 60 min in 5% CO2 at 37° C. The medium was then collected and centrifuged to pellet any suspended cells. […] The amounts of ^3H2O that had diffused into the surrounding H2O was measured on a Tri-Carb 2910 liquid scintillation analyzer (Perkin Elmer) and compared with ^3H2O and 5-[^3H]glucose standards. Protein concentration was determined using the BCA assay and counts were normalized to protein concentration (previously described in CHESNEY et al., “Fructose-2,6-bisphosphate synthesis by 6-phosphofructo-2-kinase/fructose-2,6-bisphosphatase 4 (PFKFB4) is required for the glycolytic response to hypoxia and tumor growth” Oncotarget (2014) Vol. 5, No. 16, pp. 6670-6686, which is herein incorporated by reference in its entirety).

The test system of experiment [3] is subcutaneous Lewis lung carcinoma tumors. The experiment in a line: Tumor glucose uptake in vivo by FDG-PET. Particulars: 40 mg/kg PO x1, PET 60 minutes after dose, versus vehicle (FIG. 9). Also noted: species or system C57BL/6 mice. The protocol:
The efficacy of Formula (I) to decrease tumor glucose uptake was examined by positron emission tomography (PET) following ^18F-fluoro-2-deoxy-glucose (FDG) injection. […] Method: FDG-PET was conducted on tumor-bearing mice to determine acute effects of Formula (I) on glucose uptake. C57BL/6 mice (Charles River) with subcutaneous Lewis lung carcinoma tumors were injected intraperitoneally with 100 μCi of ^18F-fluoro-2-deoxy-glucose under isoflurane anesthesia and subjected to a 15-minute static scan 45 minutes after tracer injection at baseline. Twenty-four hours later, the same animals were administered vehicle (DMSO) or Formula (I) (in DMSO, 40 mg/kg, PO×1), and, after 60 minutes, FDG uptake determined by PET scan. Tumor/cerebellum ROI (regions of interest) were quantified, representative sagittal cuts from mice are shown with arrows showing the tumors on the animals. (* signifies statistical significance).

Experiment [4] deals with Lewis lung carcinoma cells. The experiment in a line: Tumor growth in vivo, syngeneic Lewis lung carcinoma model. Details: species or system C57BL/6 mice. Particulars: daily oral 40 mg/kg in DMSO, 9 days, established tumors ~150-200 mg (FIG. 8). The source says: The efficacy of Formula (I) in decreasing the growth of tumors in vivo was examined Mice were implanted with Lewis lung carcinoma cells and after tumors were noted, dosed daily with DMSO±Formula (I) by gavage and tumor growth followed. […] Data shown as mean±SEM for each timepoint. C57BL/6 mice (Charles River) were implanted with 1×10^6 Lewis lung carcinoma cells subcutaneously and, after tumors developed, were followed by caliper measurements daily to quantify tumor mass using the formula: tumor mass=(length×width^2)/2. When tumors were ˜150-200 mg, mice were randomized to daily oral DMSO±Formula (I) (n=10/group) at 40 mg/kg in 50 μL DMSO and tumor growth followed×9 days. (* signifies statistical significance)

For experiment [5], the system named is cancer cells. The experiment in a line: Intracellular ATP, bioluminescence assay. In kind it is cell-based. Particulars: two independently run experiments (FIG. 5A, 5B). As to the method:
The effect of Formula (I) on the production of ATP was examined as a measure of its effect on energy production by the glycolytic pathway.
To measure ATP, cells were washed (while still adherent) with cold PBS, lysed with Passive Lysis Buffer (Molecular Probes, Invitrogen) added directly to the plates, and immediately harvested by scraping. The lysates were flash frozen (to −80° C.) and thawed (to 37° C.) once to accomplish complete lysis and then centrifuged to clear the lysates. Intracellular ATP levels were determined using a bioluminescence assay (Molecular Probes), utilizing luciferase and its substrate, D-luciferin and ATP values were calculated using an ATP standard curve. The ATP concentration was normalized to protein concentration that was estimated using the BCA assay.

In experiment [6] the test system is cancer cells. Nature of the experiment: Intracellular fructose-2,6-bisphosphate (F26BP) in cells. In kind it is cell-based. As to conditions: increasing concentrations; two independently run experiments (FIG. 3A, 3B). The protocol: The ability of Formula (I) to inhibit the activity of the PFKFB4 enzyme in cells was measured by examining the effect of the inhibitor on the levels of the product of the PFKFB4 enzyme, fructose-2,6-bisphosphate (F26BP). […] Data in FIG. 3 are shown as the concentration of intracellular F26BP normalized to cellular protein concentration.
In order to measure F26BP, cells were exposed to increasing concentrations of Formula (I) and were harvested, washed with PBS, lysed in NaOH/Tris acetate by heating at 80° C. and lysates neutralized to pH 7.2. F26BP content was measured using a coupled enzyme reaction following the method of Van Schaftingen (VAN SCHAFTINGEN et al, “A kinetic study of pyrophosphate: fructose-6-phosphate phosphotransferase from potato tubers. Application to a microassay of fructose 2,6-bisphosphate” Eur J Biochem. (1982) Vol. 129, No. 1, pp. 191-195), which is herein incorporated by reference in its entirety. The F26BP concentration was normalized to total cellular protein measured by the bicinchoninic acid assay (BCA, Thermo Scientific).

For experiment [7], the target named is recombinant human PFKFB4 protein (Homo sapiens, UniProt Q16877). The experiment in a line: ADP-Glo kinase assay of recombinant PFKFB4. In kind it is biochemical. As to conditions: decrease in luminescence relative to DMSO (FIG. 1). As to the method: The efficacy of the compound Formula (I) in inhibiting the activity of the PFKFB4 enzyme was tested by examination of the effect of Formula (I) on the kinase activity of recombinant PFKFB4 enzyme in the ADP-Glo assay.
Chain of recombinant human PFKFB4 protein (Q16877 whole entry): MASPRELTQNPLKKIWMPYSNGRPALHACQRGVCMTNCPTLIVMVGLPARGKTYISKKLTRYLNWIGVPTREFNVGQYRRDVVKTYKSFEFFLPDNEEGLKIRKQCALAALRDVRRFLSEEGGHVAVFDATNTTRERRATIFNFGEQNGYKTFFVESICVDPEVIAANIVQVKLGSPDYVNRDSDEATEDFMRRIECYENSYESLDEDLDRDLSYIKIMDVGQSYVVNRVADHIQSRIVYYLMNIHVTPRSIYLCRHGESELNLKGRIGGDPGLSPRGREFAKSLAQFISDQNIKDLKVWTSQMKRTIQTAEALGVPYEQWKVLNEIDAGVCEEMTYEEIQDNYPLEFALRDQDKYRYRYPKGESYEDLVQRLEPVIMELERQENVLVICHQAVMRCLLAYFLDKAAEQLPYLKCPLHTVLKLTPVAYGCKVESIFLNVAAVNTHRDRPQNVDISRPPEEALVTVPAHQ
The efficacy of Formula (I) in inhibition of the kinase activity of the PFKFB4 enzyme was examined by exposing recombinant human PFKFB4 protein to Formula (I) in the ADP-Glo kinase assay (Promega) which measures ADP formed through a kinase reaction. Briefly, recombinant protein, ATP, substrate and Formula (I) were incubated together for the kinase reaction followed by the addition of ADP-Glo reagent, used to terminate the kinase reaction. Lastly, a kinase detection reagent was added to convert the newly formed ADP to ATP which was measured by a luciferase reaction. Data are shown in FIG. 1 as the decrease in luminescence caused by Formula (I) relative to DMSO. Decrease in Cell Proliferation by Formula (I) (Also Referred to as FBR1-12): […]

Regarding `COc1cccc2c(NCCCCCNC(=O)C(F)(F)F)ccnc12` [Formula (I), 2,2,2-trifluoro-N-(5-((8-methoxyquinolin-4-yl)amino)pentyl)acetamide], the “proliferation of human cancer cell lines” value in the experiment on human cancer cell lines is given as “decreases the proliferation of human cancer cell lines in vitro with higher potency than SMPN”. Besides, the “anchorage independent growth, soft agar colonies” value in the experiment on cancer cells [1] is on record as “inhibited the growth of cancer cells as soft agar colonies”. For the same compound, the “glycolysis, production of 3H2O relative to DMSO normalized to protein concentration” value in the experiment with cancer cells [2] is given as “dose-dependent decrease in glycolysis in cancer cells”. Further, the “tumor FDG uptake (tumor/cerebellum ROI)” value in experiment [3] is recorded as “caused a decrease in tumor FDG uptake compared with vehicle”. Further, the “tumor growth (tumor mass)” value in experiment [4] is recorded as “decreased established tumor growth in a syngeneic mouse tumor model”. In addition, in the experiment with cancer cells [5], the “production of ATP normalized to protein concentration” value is reported as “dose-dependent decrease in the production of ATP by cancer cells”. In the experiment on cancer cells [6], the “intracellular F26BP normalized to cellular protein concentration” value is “dose-dependent decrease in F26BP in cancer cells”. Also, the “kinase activity of the PFKFB4 enzyme” value in experiment [7] is “inhibited the kinase activity of the PFKFB4 enzyme”.
